Assay results as given in ChEMBL document CHEMBL5223096, “Potential therapeutic targets from Mycobacterium abscessus (Mab): recently reported efforts towards the discovery of novel antibacterial agents to treat Mab infections” (RSC Med Chem, 2022).
Values after ≈ are worked out from the molar mass of the structure shown. Numbered stars: 1 amine (or outer) side, 2 acyl side, 3 side chain; on linkers, the order of the positions; unused ones are H or OH. Bridge positions count the residues as written; N and C are the ends. Square brackets hold non-standard residues; d marks the D form. Peptide text beside a SMILES is read from it. * marks the point of attachment. Phe(3R-OH) = O=C([C@@H](N[*:1])[C@H](O[*:3])c1ccccc1)[*:2]; NMeTrp(4-OMe) = CN[C@@H](Cc1c[nH]c2cccc(OC)c12)C(=O)O; NMeaIle = CC[C@@H](C)[C@H](NC)C(=O)O; NMe2Val = CC(C)[C@@H](C(=O)*)N(C)C; NMeT = CN[C@H](C(=O)O)[C@@H](C)O; NMeL = CN[C@@H](CC(C)C)C(=O)O; NMeV = CN[C@H](C(=O)O)C(C)C

How the values were obtained:
[1] = test system: Mycobacteroides abscessus; assay: Antimycobacterial activity against Mycobacterium abscessus; assay type: functional
[2] = test system: Mycobacterium tuberculosis; assay: Antimycobacterial activity against Mycobacterium tuberculosis; assay type: functional
[3] = Binding affinity to Mycobacterium abscessus ClpC1 by SPR assay; parameters: species or system Mycobacteroides abscessus

## Cc1cc(C)c2cc(C(=O)NC3CCCCCC3)[nH]c2c1
[1]
  MIC: 0.06 µM (≈ 0.0171 µg/mL)

## CCCCCCCCCCCCCCCCOP1(=O)OCCC(C(=O)OC)=C(C)O1 (racemic)
[1]
  MIC50: 0.37 µM (≈ 0.165 µg/mL)

## CC[C@@H](C)[C@@H](C(=O)N[C@@H]1C(=O)N(C)[C@@H]([C@@H](C)O)C(=O)N[C@@H](C(C)C)C(=O)N(C)[C@@H](CC(C)C)C(=O)N[C@@H](C(C)C)C(=O)N(C)[C@@H](C(C)C)C(=O)N(C)[C@@H](Cc2c[nH]c3cccc(OC)c23)C(=O)N[C@@H](C(C)C)C(=O)N[C@@H]([C@H](O)c2ccccc2)C(=O)N[C@@H](C(C)C)C(=O)O[C@@H]1C)N(C)C(=O)[C@@H](NC(=O)[C@H](C(C)C)N(C)C)C(C)C (NMe2Val-V[NMeaIle]T[NMeT]V[NMeL]V[NMeV][NMeTrp(4-OMe)]V[Phe(3R-OH)]V; ester 3-C)
[2]
  MIC: 0.16 µM (≈ 0.256 µg/mL)
[3]
  Kd: 100 nM

## CC(C)COc1nn(-c2ccc(Oc3ccccc3)cc2)c(=O)o1
[1]
  MIC50: 33 µM (≈ 10.8 µg/mL)

## C/C=C/C[C@@H]1NC(=O)[C@H](CC(C)C)N2C(=O)[C@H](C[C@H](C)[C@H]2O)N(C)C(=O)[C@H](C)NC(=O)[C@H](Cc2ccc(O)c([N+](=O)[O-])c2)NC(=O)[C@H](CC(C)C)N(C)C(=O)[C@H](Cc2cn(C(C)(C)C3CO3)c3ccccc23)NC1=O (some centres not stated)
[3]
  Kd: 100 nM
[1]
  MIC: 0.42 µM (≈ 0.438 µg/mL)
